In US20190038667A1, “APPLICATION OF FULLERENE/METAL-FULLERENE FOR PREPARING PHARMACEUTICAL PRODUCT” (BEIJING FU NA KANG BIOTECHNOLOGY CO., LTD., priority 2016, published 2019):
Where two headings read alike, the source gives them in different places.

What was measured:
[1] = test system: ICR mice; settings: first course
Description: (§1) Animal models: ICR mice aged 4-5 weeks were selected and assigned randomly into 5 groups with 6 mice per group.
(§2) Blank control group: The CTX solution injected in the experimental group was replaced with equal volumes of normal saline, and normal saline of the volume equal to 100 μL was administered intragastrically or intraperitoneally to replace Olive-C60 or olive oil.
After ICR mice aged 4-5 weeks were bred in a laboratory, CTX solutions were injected on the seventh day when their conditions were stable, which was marked as the first day of the experiment. Intraperitoneal injection of CTX was conducted once a day for 5 consecutive days; meanwhile, Olive-C60 or Olive or the normal saline was administered intragastrically or intraperitoneally. 5 days later, no injection was made, and only observation or sampling was conducted.
Effects of Olive-C60 on myelosuppression in the first course on an intravital level: blood (13 μl) was taken from orbits of mice on the 4th day, the 7th day, the 10th day and the 17th day respectively, and was placed in a 3 ml centrifuge tube, and the blood routine examination was conducted using a blood cell automatic analyzer, wherein the main indexes related to myelosuppression are white blood cell counts (WBC), platelet counts (PLT), red blood cell counts (RBC) and hemoglobin determination (HGB). Meanwhile, changes in the weight of mice were monitored.

[2] = test system: ICR mice; assay: Protection on myelosuppression caused by CTX in H22 tumor mice (blood routine examination); assay type: in vivo
Description: Blank control group: The drugs injected either intragastrically or intraperitoneally in the experimental groups were replaced with equal volumes of normal saline.
GFNC experimental group: Mice were injected with a GFNC aqueous solution (1 mM) via caudal veins at a dosage of 0.004 mmol of GFNC/kg of body weight of mice.
CTX+GFNC experimental group: Mice were injected intraperitoneally with a CTX solution at a dosage of 60 mg/kg of body weight of mice, and GFNC solution was injected intravenously at a dosage of 0.004 mmol of GFNC/kg of body weight of mice.
Injection of drugs was initiated on the 7th day after tumor inoculation, which was marked as the first day of the experiment. Intraperitoneal injection of CTX or intravenous injection of GFNC was conducted once a day for 5 consecutive days; thereafter, blood (20 μl) was taken respectively from orbits of mice on the 4th day, the 7th day, the 10th day, the 14th day and the 17th day, and was placed in a 3 ml centrifuge tube, and the blood routine examination was conducted using a blood cell automatic analyzer, wherein the main indexes related to myelosuppression are white blood cell counts (WBC), platelet counts (PLT), hemoglobin determination (HGB) and monocyte proportion (MO %).
Animal model: ICR mice aged 4-5 weeks were selected and assigned randomly into 4 groups with 6 mice per group. […]

[3] = test system: ICR mice; assay: Influence of GFNC on therapeutic effects of CTX on tumors and toxic experiment
Description: Blank control group: The injected drugs in the experimental groups were replaced with equal volumes of normal saline.
Metallofullerene derivative (GFNC) experimental group: Mice were injected intravenously with a GFNC solution at a dosage of 0.04 mmol of Gd^3+/kg of body weight of mice.
CTX+GFNC experimental group: Mice were injected intraperitoneally with a CTX solution at a dosage of 60 mg/kg of body weight of mice, and GFNC solution was injected intravenously at a dosage of 0.04 mmol of Gd^3+/kg of body weight of mice.
Injection of drugs was initiated on the 7th day after tumor inoculation, which was marked as the first day of the experiment. Intraperitoneal injection of CTX or intravenous injection of GFNC was conducted once a day for 5 consecutive days, and weights of mice and tumor diameters were measured every two days; thereafter, on the 17th day, mice were fetched and their eye balls were removed, and blood was taken respectively from their orbits; then, the blood was placed in a 5 ml centrifuge tube where it was centrifuged for 15 minutes at a rotational speed of 3,500 rpm; after that, a resultant serum was transferred into a 200 μL centrifuge tube, and blood biochemical indexes (e.g., ALT, ALP, AST, BUN, LDH and UA) of the mice were detected in a blood biochemical instrument; after mice were sacrificed by cervical dislocation, their main tissues and organs (hearts, livers, spleens, lungs and kidneys) were taken and weighed, and were then soaked in a 4% formalin solution; thereafter, histopathological section was conducted, and then, H&E staining was conducted. The blank control group, the cyclophosphamide (CTX) experimental group and the metallofullerene experimental group (GFNC) were processed in the same way for comparison.

[4] = test system: ICR mice; settings: second course
Description: as §1
100 μL of normal saline was administered intragastrically so as to eliminate the difference influenced by intragastric stimulation on mice.
as §2
(§3) The second course started 20 days after the day when the first course was initiated and mice were basically recovered. In other words, the 21st day of the first course was marked as the first day of the second course. Thereafter, intraperitoneal injection of CTX was conducted once a day for 5 consecutive days; and Olive-C60 or olive was administered intragastrically or intraperitoneally. 5 days later, no drug was given; and only observation or sampling was conducted.
Effects of Olive-C60 on myelosuppression in the second course on an intravital level: blood (13 μl) was taken from orbits of mice on the 4th day, the 7th day, the 10th day and the 17th day of the second course respectively, and was placed in a 3 ml centrifuge tube, and the blood routine examination was conducted using a blood cell automatic analyzer, wherein the main indexes related to myelosuppression are white blood cell counts (WBC), platelet counts (PLT), red blood cell counts (RBC) and hemoglobin determination (HGB). Meanwhile, changes in the weight of mice were monitored.

[5] = test system: ICR mice; assay: Effects of Olive-C60 on blood biochemical indexes in the second course (serum); assay type: in vivo; settings: 18th day, versus blank control group
Description: as §1, §3
Effects of Olive-C60 on blood biochemical indexes in the second course on an intravital level: On the 18th day of the second course of the experiment, whole blood was taken from orbits, serums were obtained by centrifugation, and blood biochemical indexes were tested.

[6] = test system: ICR mice; assay: Effects of Olive-C60 on relevant enzyme activities in the second course (serum); assay type: in vivo; settings: 18th day, Olive-C60 intragastrically with CTX, or CTX alone, versus blank control group
Description: as §1, §3
Effects of Olive-C60 on relevant enzyme activities in the second course on an intravital level: On the 18th day of the second course of the experiment, whole blood was taken from orbits, serums were obtained by centrifugation, and different relevant enzyme activities were tested.

[7] = CTX 60 mg/kg i.p. x5 days alone
[8] = 17th day, CTX alone or CTX+GFNC

O=P1(N(CCCl)CCCl)NCCCO1 (stereo not shown) [CTX, cyclophosphamide]
white blood cells, red blood cells, platelets and hemoglobin compared with the blank control group [1, 7]: varying degrees of reduction | weight of mice ([1]; CTX 60 mg/kg i.p. x5 days, alone or with Olive-C60 100 μL (1,500 ppm), after termination of CTX injection / later stage): lower than that of the mice in any other groups | monocytes ([2]; CTX 60 mg/kg i.p. x5 days alone or with 0.004 mmol/kg material intravenously x5 days): abnormal hyperplasia | white blood cells, platelets and hemoglobin ([2]; H22 tumor mice, CTX 60 mg/kg i.p. x5 days alone (versus blank control) or with 0.004 mmol/kg material intravenously x5 days (versus CTX group)): varying degrees of reduction | histopathological sections of main tissues and organs (H&E staining) [3, 8]: damaged to a certain extent | pathological sections of tumor sites: cells of tumor tissues [3, 8]: die in great quantity | weight of mice ([3]; CTX 60 mg/kg i.p. x5 days alone or with GFNC 0.04 mmol of Gd3+/kg intravenously): drops obviously in the initial stage of drug injection | white blood cells on the 17th day ([4]; 17th day, CTX alone or with Olive-C60): still below their normal levels | white blood cells, red blood cells, platelets and hemoglobin compared with the blank control group [4, 7]: varying degrees of reduction | weight of mice ([4]; CTX alone or with Olive-C60): differs greatly from that of the mice in other groups | weight of mice ([4]; CTX alone or with Olive-C60, listed as cyclophosphamide): lower than that of the mice in any other groups | level of uric acid in the serum [5]: far lower than that in the serum of mice in the blank control group | level of MDA [6]: higher than that of mice in the blank control group
